Reference: patent publication US12637473B2, “MDM2 protein degraders” (THE REGENTS OF THE UNIVERSITY OF MICHIGAN, priority 2016, dated 2026)
Entries after “also recorded” stand apart in the source; their conditions may differ.

What was measured:
Assay type in all cases: cell-based
[1] = test system: MV4-11 cell line; assay: CellTiter-Glo Luminescent Cell Viability Assay, cell growth inhibition; conditions: Homo sapiens, 96 h, 4 days
Method in brief: (§1)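 Cells plated at 2,000/well with serially diluted compounds, incubated 4 days at 37° C, 5% CO2. Viability read by CellTiter-Glo luminescence after 10-20 min at room temperature; IC50 from dose-response fit.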

[2] = test system: RS4; 11 cell line; assay: as above; conditions: Homo sapiens, 96 h, 4 days
Method in brief: as §1

[3] = test system: p53 target genes: p21, PUMA and BAX; assay: Activation of p53 downstream target genes, quantitative real-time PCR; conditions: RS4, 11 cells, 10 nM; for mRNA levels of p21: FIG. 3; for mRNA levels of PUMA: FIG. 4; for mRNA levels of BAX: FIG. 5; for activation of p53 downstream target genes (mRNA levels of p21, PUMA, BAX): 3, 6, or 12 hours
Description: RS4; 11 cells were treated with Cpd. A (0.3 μM), Cpd. No. 15 (10 nM), and Cpd. No. 22 (10 nM) for 3, 6, or 12 hours, and then harvested and washed. Cellular mRNA samples were extracted from the cells and then subjected to Reverse Transcription and quantitative real-time PCR for the analysis of the mRNA levels of three representative p53 target genes: p21, that induces cell cycle arrest, and PUMA and BAX that leads to apoptosis. […] A, Cpd. No. 15, and Cpd. No. 22.

[4] = test system: RS4; 11 cells; assay: Cell growth inhibition by WST assay with Cpd. C co-treatment (CRBN competition); parameters: LogIC50: unit not given here; conditions: for HillSlope / IC50 / LogIC50: 4 days; for shift of the dose response curves: co-treatment of Cpd. C (10, 20, or 30 μM)
Description: RS4; 11 cells were pre-incubated with different concentrations of Cpd. C to compete for the binding of phthalimide to CRBN, or DMSO, for 2 hours before adding Cpd. A, Cpd. No. 14, Cpd. No. 15, and Cpd. No. 22. The cells were then co-treated with 10, 20, or 30 μM Cpd. C and increasing concentrations of Cpd. A, Cpd. No. 14, Cpd. No. 15, and Cpd. No. 22 for 4 days, with a starting cell concentration of ˜15,000/well. Cell growth inhibition was determined by the WST assay. […] No. 14, Cpd. No. 15, and Cpd. No. 22 with co-treatment of Cpd. C. The structure of Cpd.

[5] = test system: RS4; 11 cells with stable shRNA knockdown of p53; assay: Cell growth inhibition by WST assay, p53 knockdown cells; parameters: LogIC50: unit not given here; conditions: RS4;11 sh p53, 4 days; for IC50: Homo sapiens, 96 h
Description: (§2) RS4; 11 cells with stable shRNA knockdown of p53 or those transfected shRNA control vector were treated with Cpd. A, Cpd. B, Cpd. No. 14, Cpd. No. 21, Cpd. No. 15, and Cpd. No. 22 for 4 days, with a cell concentration of ˜15,000/well. Cell growth inhibition was determined by WST assay. See Table 7 (p53) and Table 8 (control). Significant increases in IC50 of the Compounds of the Disclosure in the p53 knockdown RS4; 11 cells were observed compared with that in the sh control cells. […] The p53 knockdown efficiency was determined by western blot for p53 protein levels with or without treatment of Cpd. A (1 μM) for 2 hours.

[6] = test system: RS4; 11 cells transfected shRNA control vector; assay: Cell growth inhibition by WST assay, shRNA control cells; parameters: LogIC50: unit not given here; conditions: RS4;11 sh Control, 4 days; for IC50: Homo sapiens, 96 h
Description: as §2

[7] = biological target: T1, MDM2 (Homo sapiens, UniProt Q00987); assay: MDM2 degradation and p53 activation, western blotting of cell lysates; parameters: endogenous in cells; conditions: for p53 activation: MV-4-11 cell line; for protein level of MDM2 (MDM2 degradation): MV-4-11 cells, 2 hours, compared to Cpd. A
T1 sequence (Q00987 whole entry): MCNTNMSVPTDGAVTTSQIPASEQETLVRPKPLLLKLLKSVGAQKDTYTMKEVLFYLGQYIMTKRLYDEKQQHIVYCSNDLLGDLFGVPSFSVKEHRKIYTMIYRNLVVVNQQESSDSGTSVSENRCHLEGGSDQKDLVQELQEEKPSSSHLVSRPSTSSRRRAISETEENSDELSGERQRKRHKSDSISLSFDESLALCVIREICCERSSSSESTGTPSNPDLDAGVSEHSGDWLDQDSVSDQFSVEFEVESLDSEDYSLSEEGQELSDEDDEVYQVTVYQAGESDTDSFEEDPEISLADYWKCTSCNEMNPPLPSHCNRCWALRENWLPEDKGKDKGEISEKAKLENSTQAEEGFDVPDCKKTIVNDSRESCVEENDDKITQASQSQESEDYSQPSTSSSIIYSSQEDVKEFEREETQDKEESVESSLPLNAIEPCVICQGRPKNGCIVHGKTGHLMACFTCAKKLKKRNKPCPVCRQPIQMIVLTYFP
Description: MV-4-11 cells were treated with Cpd. A, Cpd. B, Cpd. No. 15, and Cpd. No. 22 for 2 hours, then harvested and lysed. The cell lysates were subjected to western blotting analysis. […] No. 15 and Cpd. No. 22 as compared to Cpd. A, indicating MDM2 degradation.

[8] = biological target: T1, MDM2; assay: as above; parameters: endogenous in cells; host or cells: RS4;11; conditions: RS4; for p53 activation: 11 cell line; for protein level of MDM2 (MDM2 degradation): 11 cells, 2 hours, compared to Cpd. A
Description: RS4; 11 cells were treated with Cpd. A, Cpd. B, Cpd. No. 15, and Cpd. No. 22 for 2 hours, then harvested and lysed. The cell lysates were subjected to western blotting analysis. […] No. 15 and Cpd. No. 22 as compared to Cpd. A, indicating MDM2 degradation. The structure of Cpd.

[9] = biological target: T1, MDM2; assay: MDM2 degradation with or without proteasome inhibitor MG-132, western blotting; parameters: endogenous in cells; host or cells: RS4;11; conditions: FIG. 6
Description: RS4; 11 cells were pre-incubated with the proteasome inhibitor MG-132 (20 μM) or without any pre-incubation for 2 hours. Next, the cells were treated with Cpd. A (0.3 μM), Cpd. No. 14 (0.03 μM), Cpd. No. 15 (0.01 μM), and Cpd. No. 22 (0.01 μM) for 2 hours, then harvested and lysed. The cell lysates were subject to western blotting analysis.

[10] = biological target: T1, MDM2; assay: MDM2 degradation and p53 activation after pre-incubation with Cpd. C, Western blot; parameters: endogenous in cells; host or cells: RS4;11; conditions: for MDM2 degradation, dependence on cereblon (CRBN): FIG. 7; for MDM2 degradation, competition by Cpd. C / p53 activation, competition by Cpd. C: RS4, 11 cells, pre-incubated with 30 μM Cpd. C for 2 hours
Description: RS4; 11 cells were pre-incubated with 30 μM Cpd. C to compete for the binding of phthalimide to CRBN, or DMSO, for 2 hours before adding Cpd. A, Cpd. No. 14, Cpd. No. 15, and Cpd. No. 22. In the Western blot RS4; 11 cells were then co-treated with the indicated compounds at the indicated concentrations after pre-incubation. […] No. 14, Cpd. No. 15, and Cpd.

[11] = Homo sapiens, 96 h, without Cpd. C

Row | Compound | IC50 [1] [nM] | IC50 [2] [nM] | mRNA levels of p21 [3] | mRNA levels of PUMA [3] | mRNA levels of BAX [3] | activation of p53 downstream target genes (mRNA levels of p21, PUMA, BAX) [3] | HillSlope ([4]; + 10 uM Cpd. C) | IC50 ([4]; + 10 uM Cpd. C) [nM] | LogIC50 ([4]; + 10 uM Cpd. C) | HillSlope ([4]; + 20 uM Cpd. C) | IC50 ([4]; + 20 uM Cpd. C) [nM] | LogIC50 ([4]; + 20 uM Cpd. C) | HillSlope ([4]; + 30 uM Cpd. C) | IC50 ([4]; + 30 uM Cpd. C) [nM] | LogIC50 ([4]; + 30 uM Cpd. C) | HillSlope ([4]; without Cpd. C) | LogIC50 ([4]; without Cpd. C) | IC50 [4, 11] [nM] | shift of the dose response curves [4] | IC50 [5] [nM] | further results
1 | O=C1CCC(N2C(=O)c3cccc(NCCOCCOCCOCCNC(=O)c4ccc(NC(=O)[C@@H]5NC6(CCCCC6)[C@@]6(C(=O)Nc7cc(Cl)ccc76)[C@H]5c5cccc(Cl)c5F)cc4)c3C2=O)C(=O)N1 (stereo partly drawn) [Cpd. No. 15, (3′R,4'S,5′R)-6″-chloro-4′-(3-chloro-2-fluorophenyl)-N-(4-((2-(2-(2-(2-((2-(2,6-dioxopiperidin-3-yl)-1,3-dioxoisoindolin-4-yl)amino)ethoxy)ethoxy)ethoxy)ethyl)carbamoyl)phenyl)-2″-oxodispiro[cyclohexane-1,2′-pyrrolidine-3′,3″-indoline]-5′-carboxamide] | 2 | 4.4 | activate | activate | activate | Significant activation | −1.654 | 44 | −1.356 | −1.540 | 68.2 | −1.167 | −1.416 | 62.4 | −1.205 | −1.839 | −2.312 | 4.87 | Significant rightward shifts | 110 | HiliSlope [5]: −0.8905; LogIC50 [5]: −0.9565; IC50 [6]: 7.47 nM; HiliSlope [6]: −1.626; LogIC50 [6]: −2.127; p53 activation [7]: p53 activation; protein level of MDM2 (MDM2 degradation) [7]: induce MDM2 degradation; also recorded: significantly decreased; p53 activation [8]: p53 activation; protein level of MDM2 (MDM2 degradation) [8]: induce MDM2 degradation; also recorded: significantly decreased; MDM2 degradation, dependence on proteasome [9]: proteasome-dependent; MDM2 degradation, dependence on cereblon (CRBN) [10]: cereblon (CRBN)-dependent; MDM2 degradation, competition by Cpd. C [10]: significantly competed by Cpd. C; p53 activation, competition by Cpd. C [10]: significantly competed by Cpd. C
2 | O=C1CCC(N2Cc3c(NCCOCCOCCOCCNC(=O)c4ccc(NC(=O)[C@@H]5NC6(CCCCC6)[C@@]6(C(=O)Nc7cc(Cl)ccc76)[C@H]5c5cccc(Cl)c5F)cc4)cccc3C2=O)C(=O)N1 (stereo partly drawn) [Cpd. No. 22, (3′R,4'S,5′R)-6″-chloro-4′-(3-chloro-2-fluorophenyl)-N-(4-((2-(2-(2-(2-((2-(2,6-dioxopiperidin-3-yl)-1-oxoisoindolin-4-yl)amino)ethoxy)ethoxy)ethoxy)ethyl)carbamoyl)phenyl)-2″-oxodispiro[cyclohexane-1,2′-pyrrolidine-3′,3″-indoline]-5′-carboxamide] | 2.7 | 4.7 | activate | activate | activate | Significant activation | −1.701 | 61.7 | −1.209 | −1.530 | 89.6 | −1.048 | −1.341 | 83.2 | −1.080 | −1.803 | −2.242 | 5.73 | Significant rightward shifts | 137 | HiliSlope [5]: −0.8833; LogIC50 [5]: −0.8628; IC50 [6]: 9.45 nM; HiliSlope [6]: −1.567; LogIC50 [6]: −2.025; p53 activation [7]: p53 activation; protein level of MDM2 (MDM2 degradation) [7]: induce MDM2 degradation; also recorded: significantly decreased; p53 activation [8]: p53 activation; protein level of MDM2 (MDM2 degradation) [8]: induce MDM2 degradation; also recorded: significantly decreased; MDM2 degradation, dependence on proteasome [9]: proteasome-dependent; MDM2 degradation, dependence on cereblon (CRBN) [10]: cereblon (CRBN)-dependent; MDM2 degradation, competition by Cpd. C [10]: significantly competed by Cpd. C; p53 activation, competition by Cpd. C [10]: significantly competed by Cpd. C
